Assay results taken from paper PMC10575874, “Structural insights into the allosteric inhibition of P2X4 receptors” (Nature Communications, 2023).

T1: zebrafish P2X4 receptor (zfP2X4) (Danio rerio, UniProt F8W463)
T1 construct: gene p2rx4a; residues 9-382 (GenBank AAH66495.1), trimer in PMAL-C8 amphipol
T1 sequence (F8W463 9-382): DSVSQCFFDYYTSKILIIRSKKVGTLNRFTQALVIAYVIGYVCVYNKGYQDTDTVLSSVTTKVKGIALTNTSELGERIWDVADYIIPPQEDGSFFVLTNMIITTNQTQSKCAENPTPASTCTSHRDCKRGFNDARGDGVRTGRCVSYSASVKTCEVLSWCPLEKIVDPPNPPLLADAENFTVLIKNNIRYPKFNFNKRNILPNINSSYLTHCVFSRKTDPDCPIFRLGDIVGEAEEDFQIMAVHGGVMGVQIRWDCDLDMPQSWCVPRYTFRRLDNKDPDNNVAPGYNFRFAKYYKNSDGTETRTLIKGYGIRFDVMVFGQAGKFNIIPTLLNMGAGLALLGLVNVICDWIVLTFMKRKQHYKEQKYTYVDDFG

T2: human P2X3 receptor, P2X4-like gain-of-function mutant (Homo sapiens, UniProt P56373, M75W/T82I/V98I)
T2 construct: gene P2RX3
T2 sequence (P56373 1-397 M75W/T82I/V98I): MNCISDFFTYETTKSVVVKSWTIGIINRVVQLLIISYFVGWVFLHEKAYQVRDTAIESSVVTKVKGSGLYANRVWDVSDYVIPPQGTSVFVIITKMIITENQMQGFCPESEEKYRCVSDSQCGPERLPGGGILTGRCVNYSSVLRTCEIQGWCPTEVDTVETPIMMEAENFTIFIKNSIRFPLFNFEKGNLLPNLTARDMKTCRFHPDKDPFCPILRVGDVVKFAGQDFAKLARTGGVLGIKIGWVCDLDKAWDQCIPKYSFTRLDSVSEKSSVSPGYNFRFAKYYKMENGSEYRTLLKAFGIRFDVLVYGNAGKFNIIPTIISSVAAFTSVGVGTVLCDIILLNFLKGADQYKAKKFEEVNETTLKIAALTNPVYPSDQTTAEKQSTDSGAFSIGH

B1: zebrafish P2X4 receptor (residues 9-382) (receptor, UniProt F8W463 9-382, looked up)
chain: DSVSQCFFDYYTSKILIIRSKKVGTLNRFTQALVIAYVIGYVCVYNKGYQDTDTVLSSVTTKVKGIALTNTSELGERIWDVADYIIPPQEDGSFFVLTNMIITTNQTQSKCAENPTPASTCTSHRDCKRGFNDARGDGVRTGRCVSYSASVKTCEVLSWCPLEKIVDPPNPPLLADAENFTVLIKNNIRYPKFNFNKRNILPNINSSYLTHCVFSRKTDPDCPIFRLGDIVGEAEEDFQIMAVHGGVMGVQIRWDCDLDMPQSWCVPRYTFRRLDNKDPDNNVAPGYNFRFAKYYKNSDGTETRTLIKGYGIRFDVMVFGQAGKFNIIPTLLNMGAGLALLGLVNVICDWIVLTFMKRKQHYKEQKYTYVDDFG
notes: P2X4 receptor, zebrafish (Danio rerio), GenBank AAH66495.1, residues 9-382 (truncation of the N-terminal 8 and the C-terminal 7 residues); Homotrimer; A C-terminal HRV 3C site stood before TGP and the Twin-Strep-tag; residues of the site may remain after cleavage; also called zfP2X4; source: Sf9 (baculovirus), purified (Strep-Tactin, HRV 3C cleavage, SEC), reconstituted into PMAL-C8 amphipol; not …

Experiments:
[1] = target: T1, zebrafish P2X4 receptor (zfP2X4); experiment: cryo-EM structure ([…] Å); whole-cell patch clamp in HEK293 cells
[2] = target: T2, human P2X3 receptor, P2X4-like gain-of-function mutant; experiment: patch clamp of ATP-evoked currents in HEK293 cells at […] BX430; assay type: cell-based
[3] = target: the molecule itself; experiment: cryo-EM structure; purified zfP2X4 in PMAL-C8 amphipol, incubated with 50 uM BX430 or 125 uM BAY-1797 for 1 h; C3 symmetry imposed, also processed with C1 symmetry

| Molecule | IC50 [1] | patch clamp of ATP-evoked currents in HEK293 cells at 30 and 100 μM BX430 [2] | stoichiometry N [3] |
| --- | --- | --- | --- |
| CC(C)c1cc(Br)c(NC(=O)Nc2cccnc2)c(Br)c1 [BX430, 1-(2,6-dibromo-4-isopropylphenyl)-3-(3-pyridyl)urea] | BX430-bound zfP2X4 (EMD-36668) (PDB 8JV5) | the P2X4-like mutant of human P2X3 (M75W/T82I/V98I) conferred sensitivity to BX430 |  |
| B1 |  |  | 3 |
